Test results as given in patent US10336732B2, “1-heterocyclyl isochromanyl compounds and analogs for treating CNS disorders” (Sunovion Pharmaceuticals Inc., priority 2015, dated 2019).

biological target: T1, 5-HT2B (Homo sapiens, UniProt P41595); assay: In vitro radioligand binding assay, 5-HT2B, [125I](±)DOI; parameters: concentration or dose not given beside the values; settings: human recombinant (CHO cells)
T1 construct: expressed in transfected cells; host or cells: CHO cells
Method: Certain compounds were tested by in vitro binding assays using standard procedures. […] These receptors and assays are well known to those skilled in the art, as exemplified by the following: Abramovitz, M. et al. (2000), Biochem. Biophys. Acta., 1483: 285-293 (EP4, IP (PGI2)); Aharony, D. et al. (1993), Mol. Pharmacol., 44: 356-363 (NK2); Ardati, A. et al. (1997), Mol. Pharmacol., 51: 816-824 (NOP (ORL1)); Bignon, E. et al. (1999), J. Pharmacol. Exp. Ther. 289: 742-751 (CCK1 (CCKA)); Bloomquist, B. T. et al. (1998), Biochem. Biophys. Res. Commun., 243: 474-479 (GAL2); Brockhaus, M. et al. (1990), Proc. Natl. Acad. Sci. U.S.A., 87: 3127-3131 (TNF-α); Brown, G. B. (1986), J. Neurosci., 6: 2064-2070 (Na+ channel (site 2)); Buchan, K. W. et al. (1994), Brit. J. Pharmacol., 112: 1251-1257 (ETA); Cesura, A. M. et al. (1990), Mol. Pharmacol., 37: 358-366 (MAO-A); Choi, D. S. et al. (1994), FEBS Lett., 352: 393-399 (5-HT2B); Clark, A. F. et al. (1996), Invest. Ophtalmol. Vis. Sci., 37: 805-813 (GR); Couvineau, A. et al. (1985), Biochem. J., 231: 139-143 (VPAC1 (VIP1)); Dorje, F. et al. (1991), J. Pharmacol. Exp. Ther., 256: 727-733 (M1, M2, M3, M4); Ferry, G. et al. (2001), Eur. J. Pharmacol., 417: 77-89 (PPARγ); Fuchs, S. et al. (2001), Mol. Med., 7: 115-124 (ETB); Fuhlendorff, J. et al. (1990), Proc. Natl. Acad. Sci. U.S.A., 87: 182-186 (Y2); Ganapathy M E. et al. (1999), J. Pharmacol. Exp. Ther., 289: 251-260 (sigma (non-selective)); Gopalakrishnan, M. et al. (1996), J. Pharmacol. Exp. Ther., 276: 289-297 (N neuronal α4β2); Greengrass, P. and Bremner, R. (1979), Eur. J. Pharmacol., 55: 323-326 (α1 (non-selective)); Grandy, D. K. et al. (1989), Proc. Natl. Acad. Sci. U.S.A., 86: 9762-9766 (D25); Guard, S. et al. (1993), Eur. J. Pharmacol., 240:177-184 (BB (non-selective)); Heuillet, E. et al. (1993), J. Neurochem., 60: 868-876 (NK1, P2X); Hope, A. G. et al. (1996), Brit. J. Pharmacol., 118: 1237-1245 (5-HT3); Hoyer, D. et al. (1985), Eur. J. Pharmacol., 118: 1-12 (5-HT1B); Hugues, M. et al. (1982), J. Biol. Chem., 257: 2762-2769 (5-HT2A, SKCa channel); Joseph, S. S. et al. (2004), Naun.-Sch. Arch. Pharm., 369: 525-532 (β2); Le, M. T. et al. (2005), Eur. J. Pharmacol., 513: 35-45 (AT1); Le Fur, G. et al. (1983), Life Sci., 33: 449-457) (BZD (peripheral); Lee, Y. M. et al. (1993), J. Biol. Chem., 268: 8164-8169 (CCK2 (CCKB)); Leurs, R. et al. (1994), Brit. J. Pharmacol., 112: 847-854 (H2); Levin, M. C. et al. (2002), J. Biol. Chem., 277: 30429-30435 (11); Lewin, A. H. et al. (1989), Mol. Pharmacol., 35: 189-194 (Cl− channel (GABA-gated)); Lukas, R. J. (1986), J. Neurochem., 46: 1936-1941 (N muscle-type); Luthin, D. R. et al. (1995), Mol. Pharmacol., 47: 307-313; (A2A); Mackenzie, R. G. et al. (1994), Eur. J. Pharmacol., 266: 79-85 (D3); Mulheron, J. G. et al. (1994), J. Biol. Chem., 269: 12954-12962 (5-HT1A); Meng, F. et al. (1993), Proc. Natl. Acad. Sci. U.S.A., 90: 9954-9958 (κ (KOP)); Monsma, F. J. et al. (1993), Mol. Pharmacol., 43: 320-327 (5-HT6); Neote, K. et al. (1993), Cell, 72: 415-425 (CCR1); Pacholczyk, T. et al. (1991), Nature, 350: 350-354 (sst (non-selective, norepinephrine transporter)); Peralta, E. G. et al. (1987), Embo. J., 6: 3923-3929 (M3); Pristupa, Z. B. et al. (1994), Mol. Pharmacol., 45: 125-135 (dopamine transporter); Pruneau, D. et al. (1998), Brit. J. Pharmacol., 125: 365-372 (B2); Rees, S. et al. (1994), FEBS Lett., 355: 242-246 (5-HT5a); Reynolds, I. J. et al. (1986), J. Pharmacol. Exp. Ther., 237: 731-738 (Ca2+ channel (L, verapamil site)); Rinaldi-Carmona, M. et al. (1996), J. Pharmacol. Exp. Ther., 278: 871-878 (CB1); Salvatore, C. A. et al. (1993), Proc. Natl. Acad. Sci. U.S.A., 90: 10365-10369 (A3); Sarau, H. M. et al. (1997), J. Pharmacol. Exp. Ther., 281: 1303-1311 (NK3); Schioth, H. B. et al. (1997), Neuropeptides, 31: 565-571 (MC4); Sharples, C. […]

T1 sequence (P41595 whole entry): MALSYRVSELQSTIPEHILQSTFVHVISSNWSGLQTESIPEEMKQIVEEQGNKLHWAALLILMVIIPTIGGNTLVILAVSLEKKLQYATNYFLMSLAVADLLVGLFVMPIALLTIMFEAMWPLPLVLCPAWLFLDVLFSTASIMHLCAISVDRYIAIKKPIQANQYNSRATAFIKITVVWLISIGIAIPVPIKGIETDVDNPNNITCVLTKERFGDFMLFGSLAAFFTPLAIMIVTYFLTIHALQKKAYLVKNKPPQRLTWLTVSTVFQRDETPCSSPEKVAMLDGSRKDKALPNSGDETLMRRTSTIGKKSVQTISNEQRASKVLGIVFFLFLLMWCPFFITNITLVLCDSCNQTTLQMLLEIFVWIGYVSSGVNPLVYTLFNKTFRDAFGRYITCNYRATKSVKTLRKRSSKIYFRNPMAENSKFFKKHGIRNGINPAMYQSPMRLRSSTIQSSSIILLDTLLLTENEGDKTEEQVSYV

Row | SMILES | 5HT2b percent inhibition of specific binding [%]
1 | Clc1ccc2c(c1)[C@H]([C@@H]1CCCN1)OCC2 [Compound I-29, (S)-2-((R)-7-chloroisochroman-1-yl)pyrrolidine] | 80
2 | Fc1cccc2c1[C@H]([C@@H]1CCCN1)OCC2 [Compound I-1, (S)-2-((R)-8-fluoroisochroman-1-yl)pyrrolidine] | 79
3 | Fc1cccc2c1[C@H]([C@@H]1CCN1)OCC2 [Compound I-83, (S)-2-((R)-8-fluoroisochroman-1-yl)azetidine] | 83
4 | Fc1ccc2c(c1)CCO[C@H]2[C@@H]1CCCN1 [Compound I-9, (S)-2-((R)-6-fluoroisochroman-1-yl)pyrrolidine] | 76
5 | Fc1cccc2c1CCO[C@@H]2[C@H]1CCN1 [Compound I-96, (R)-2-((S)-5-fluoroisochroman-1-yl)azetidine] | 58
6 | Fc1ccc2c(c1)CCO[C@H]2[C@@H]1CCN1 [Compound I-90, (S)-2-((R)-6-fluoroisochroman-1-yl)azetidine] | 77
7 | Fc1cccc2c1CCO[C@@H]2[C@@H]1CCN1 [Compound I-94, (S)-2-((S)-5-fluoroisochroman-1-yl)azetidine] | 76
8 | Fc1ccc2c(c1)[C@H]([C@@H]1CCCN1)OCC2 [Compound I-5, (2S)-2-((R)-7-fluoroisochroman-1-yl)pyrrolidine] | 72
